Tests used:
HER2 INS YVMA = target: T1, HER2 INS YVMA (Homo sapiens, UniProt P04626, INS775YVMA); experiment: Lance Kinase Activity Assay, HER2 INS YVMA (Her2 Exon 20 INSYVMA Lance); format: biochemical; settings: biochemical Lance assay
T1 construct: purchased DPF
Summary of the method: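 Kinase phosphorylates a ULight-labelled peptide substrate; Eu anti-phospho antibody gives TR-FRET (ex 340 nm, em 665/615 nm). Compounds in 1:3 serial dilution over 8 steps, reaction started with ATP, 1 h at room temperature, stopped with EDTA-containing detection mix for 1 h. IC50 from sigmoidal dose-response curves.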

[1] = target: Her2 Exon 20 INSYVMA Ba/F3 (Homo sapiens, UniProt P04626, DUP772-775, cells depend on it); experiment: Her2 Exon 20 INSYVMA Ba/F3 CellTiter-Glo; format: cell-based; settings: CellTiter-Glo, 72 h, read-out: Her2 Exon 20 INSYVMA Ba/F3 CTG IC50
Summary of the method: (§1)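 Ba/F3 cells dependent on the mutant kinase, seeded and grown 24 h, then treated with compound for 72 h at 37 °C, 5% CO2. Viability by CellTiter-Glo ATP luminescence versus DMSO and 10 μM staurosporine controls; IC50 from dose-response fit, plates accepted at Z′ ≥0.5; bins A ≤100 nM to E >10000 nM.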

[2] = target: EGFR Exon 20 INSNPH Ba/F3 (Homo sapiens, UniProt P00533, DUP771-773, cells depend on it); experiment: EGFR Exon 20 INSNPH Ba/F3 CellTiter-Glo; format: cell-based; settings: CellTiter-Glo, 72 h, read-out: EGFR Exon 20 INSNPH Ba/F3 CTG IC50
Summary of the method: as §1

EGFR T790ML858R = EGFR T790ML858R (Homo sapiens, UniProt P00533, L858R/T790M); experiment: EGFR T790ML858R Lance assay; format: biochemical
Method: (§2) Inhibition is indicated as […] [nM] (“−”=not measured). Compounds having an activity designated as “A” provided an IC50≤100 nM; compounds having an activity designated as “B” provided an 100 nM<IC50≤500 nM; compounds having an activity designated as “C” provided an 500 nM<IC50≤1000 nM; compounds having an activity designated as “D” provided an 1000 nM<IC50≤100000 nM; and compounds having an activity designated as “E” provided an IC50>10000 nM.

EGFR wt = EGFR wt (Homo sapiens, UniProt P00533); experiment: EGFR wt Lance assay; format: biochemical
Method: as §2

H1975 = H1975 CellTiter-Glo; format: cell-based; settings: Homo sapiens, NCI-H1975; 72 h compound incubation; read-out: H1975 CTG IC50
Summary of the method: (§3)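 Antiproliferative IC50 values come from a 72 h treatment of cultured cells, measured by CellTiter-Glo ATP luminescence. Only runs with a Z′-factor of at least 0.5, calculated from 16 vehicle and 16 Staurosporine (10 μM) control wells, are reported.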

A431 = A431 CellTiter-Glo; format: cell-based; settings: Homo sapiens, A-431; 72 h compound incubation; read-out: A431 CTG IC50
Summary of the method: as §3

Chain of Her2 Exon 20 INSYVMA Ba/F3 (P04626 with tags, fused parts or gaps DUP772-775): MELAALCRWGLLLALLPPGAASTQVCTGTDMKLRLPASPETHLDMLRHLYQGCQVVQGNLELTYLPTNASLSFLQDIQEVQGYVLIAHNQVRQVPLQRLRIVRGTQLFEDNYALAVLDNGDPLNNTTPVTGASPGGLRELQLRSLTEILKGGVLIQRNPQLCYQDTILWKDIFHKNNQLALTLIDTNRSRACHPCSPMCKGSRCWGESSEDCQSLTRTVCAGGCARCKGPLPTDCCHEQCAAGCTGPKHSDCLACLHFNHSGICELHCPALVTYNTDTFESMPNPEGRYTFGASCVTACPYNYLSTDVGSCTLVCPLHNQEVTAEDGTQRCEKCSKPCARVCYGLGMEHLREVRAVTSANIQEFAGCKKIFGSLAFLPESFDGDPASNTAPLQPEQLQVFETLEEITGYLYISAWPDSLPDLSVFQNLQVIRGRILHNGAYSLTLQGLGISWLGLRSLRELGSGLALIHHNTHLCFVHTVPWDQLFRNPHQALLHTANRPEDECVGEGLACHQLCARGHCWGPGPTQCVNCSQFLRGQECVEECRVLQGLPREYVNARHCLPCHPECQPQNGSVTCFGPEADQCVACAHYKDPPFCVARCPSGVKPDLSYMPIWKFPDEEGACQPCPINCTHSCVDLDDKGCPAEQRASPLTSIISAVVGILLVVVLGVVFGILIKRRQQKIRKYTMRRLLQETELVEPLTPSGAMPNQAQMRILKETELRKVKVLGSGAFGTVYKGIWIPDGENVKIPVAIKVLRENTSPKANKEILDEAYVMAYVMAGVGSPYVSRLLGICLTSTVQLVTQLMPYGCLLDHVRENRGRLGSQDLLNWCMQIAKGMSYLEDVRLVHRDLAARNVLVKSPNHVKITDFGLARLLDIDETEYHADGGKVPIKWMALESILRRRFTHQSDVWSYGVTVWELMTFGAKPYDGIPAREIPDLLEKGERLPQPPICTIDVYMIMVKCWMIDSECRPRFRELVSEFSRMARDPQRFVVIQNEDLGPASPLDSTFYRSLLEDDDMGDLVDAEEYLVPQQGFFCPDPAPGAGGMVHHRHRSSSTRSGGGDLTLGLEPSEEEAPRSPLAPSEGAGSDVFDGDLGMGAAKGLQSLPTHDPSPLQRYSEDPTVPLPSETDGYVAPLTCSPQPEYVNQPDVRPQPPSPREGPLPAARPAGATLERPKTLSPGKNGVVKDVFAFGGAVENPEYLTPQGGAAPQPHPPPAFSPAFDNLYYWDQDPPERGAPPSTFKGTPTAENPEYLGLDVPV
Chain of EGFR Exon 20 INSNPH Ba/F3 (P00533 with tags, fused parts or gaps DUP771-773): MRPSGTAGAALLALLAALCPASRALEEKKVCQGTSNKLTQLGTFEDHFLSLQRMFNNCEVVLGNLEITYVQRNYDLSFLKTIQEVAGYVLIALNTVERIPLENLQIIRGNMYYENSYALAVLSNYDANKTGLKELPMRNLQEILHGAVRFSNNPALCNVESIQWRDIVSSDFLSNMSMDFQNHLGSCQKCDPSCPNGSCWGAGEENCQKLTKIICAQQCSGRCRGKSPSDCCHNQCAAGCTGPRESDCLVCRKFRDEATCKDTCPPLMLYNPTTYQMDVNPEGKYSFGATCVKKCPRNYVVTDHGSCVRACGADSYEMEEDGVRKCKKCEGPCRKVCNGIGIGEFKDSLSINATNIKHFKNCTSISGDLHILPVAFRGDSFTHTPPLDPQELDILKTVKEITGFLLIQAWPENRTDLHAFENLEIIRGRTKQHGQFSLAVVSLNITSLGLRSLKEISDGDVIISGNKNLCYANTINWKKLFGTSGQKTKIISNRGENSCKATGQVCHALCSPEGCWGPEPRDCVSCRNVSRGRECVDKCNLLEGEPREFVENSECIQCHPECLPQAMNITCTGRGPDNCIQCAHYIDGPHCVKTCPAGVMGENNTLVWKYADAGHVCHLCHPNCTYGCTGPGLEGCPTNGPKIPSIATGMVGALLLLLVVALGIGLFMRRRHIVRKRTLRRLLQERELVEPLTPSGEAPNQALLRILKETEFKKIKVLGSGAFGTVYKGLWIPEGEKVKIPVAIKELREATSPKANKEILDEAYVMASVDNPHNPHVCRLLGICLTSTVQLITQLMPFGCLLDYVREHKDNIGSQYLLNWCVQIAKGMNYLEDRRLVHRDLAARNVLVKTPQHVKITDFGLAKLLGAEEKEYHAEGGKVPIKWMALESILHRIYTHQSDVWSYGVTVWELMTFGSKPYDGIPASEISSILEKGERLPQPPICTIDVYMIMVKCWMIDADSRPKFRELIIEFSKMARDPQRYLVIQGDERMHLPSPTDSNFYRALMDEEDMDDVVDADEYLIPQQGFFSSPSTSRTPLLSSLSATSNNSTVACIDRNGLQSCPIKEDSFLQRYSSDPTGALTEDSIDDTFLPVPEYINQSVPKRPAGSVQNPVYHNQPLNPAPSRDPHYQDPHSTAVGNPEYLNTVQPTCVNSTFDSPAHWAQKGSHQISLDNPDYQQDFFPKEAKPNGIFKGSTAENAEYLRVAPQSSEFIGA
Chain of EGFR T790ML858R (P00533 25-1210 T790M/L858R): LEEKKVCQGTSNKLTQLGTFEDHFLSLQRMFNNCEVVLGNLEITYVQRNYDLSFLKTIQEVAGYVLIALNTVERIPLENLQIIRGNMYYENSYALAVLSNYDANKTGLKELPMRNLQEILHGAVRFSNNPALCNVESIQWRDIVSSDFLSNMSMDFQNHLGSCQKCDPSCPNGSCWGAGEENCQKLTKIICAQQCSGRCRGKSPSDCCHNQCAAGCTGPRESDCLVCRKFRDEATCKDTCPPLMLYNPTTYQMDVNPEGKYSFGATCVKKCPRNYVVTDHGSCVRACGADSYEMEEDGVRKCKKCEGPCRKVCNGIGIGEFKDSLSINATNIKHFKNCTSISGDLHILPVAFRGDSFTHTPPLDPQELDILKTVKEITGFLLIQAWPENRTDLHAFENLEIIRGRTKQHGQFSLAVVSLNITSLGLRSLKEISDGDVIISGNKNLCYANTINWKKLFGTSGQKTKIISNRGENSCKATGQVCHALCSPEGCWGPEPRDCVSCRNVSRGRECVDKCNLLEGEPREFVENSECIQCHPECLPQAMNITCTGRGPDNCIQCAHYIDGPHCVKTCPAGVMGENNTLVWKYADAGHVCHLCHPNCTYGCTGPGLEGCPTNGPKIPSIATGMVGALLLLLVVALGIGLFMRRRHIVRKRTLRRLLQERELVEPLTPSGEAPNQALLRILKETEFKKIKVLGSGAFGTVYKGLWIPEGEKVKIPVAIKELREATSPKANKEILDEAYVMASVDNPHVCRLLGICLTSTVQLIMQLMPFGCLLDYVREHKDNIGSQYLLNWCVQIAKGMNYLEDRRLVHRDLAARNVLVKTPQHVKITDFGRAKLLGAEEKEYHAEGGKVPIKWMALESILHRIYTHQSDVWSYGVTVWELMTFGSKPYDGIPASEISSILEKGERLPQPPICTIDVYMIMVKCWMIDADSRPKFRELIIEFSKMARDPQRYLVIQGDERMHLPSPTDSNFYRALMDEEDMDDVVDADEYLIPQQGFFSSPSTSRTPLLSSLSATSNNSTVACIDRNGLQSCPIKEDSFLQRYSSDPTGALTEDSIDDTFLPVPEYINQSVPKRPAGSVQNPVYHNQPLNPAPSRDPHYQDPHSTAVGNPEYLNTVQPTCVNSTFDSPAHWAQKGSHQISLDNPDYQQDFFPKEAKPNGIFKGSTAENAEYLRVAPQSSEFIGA
T1 sequence (P04626 with tags, fused parts or gaps INS775YVMA): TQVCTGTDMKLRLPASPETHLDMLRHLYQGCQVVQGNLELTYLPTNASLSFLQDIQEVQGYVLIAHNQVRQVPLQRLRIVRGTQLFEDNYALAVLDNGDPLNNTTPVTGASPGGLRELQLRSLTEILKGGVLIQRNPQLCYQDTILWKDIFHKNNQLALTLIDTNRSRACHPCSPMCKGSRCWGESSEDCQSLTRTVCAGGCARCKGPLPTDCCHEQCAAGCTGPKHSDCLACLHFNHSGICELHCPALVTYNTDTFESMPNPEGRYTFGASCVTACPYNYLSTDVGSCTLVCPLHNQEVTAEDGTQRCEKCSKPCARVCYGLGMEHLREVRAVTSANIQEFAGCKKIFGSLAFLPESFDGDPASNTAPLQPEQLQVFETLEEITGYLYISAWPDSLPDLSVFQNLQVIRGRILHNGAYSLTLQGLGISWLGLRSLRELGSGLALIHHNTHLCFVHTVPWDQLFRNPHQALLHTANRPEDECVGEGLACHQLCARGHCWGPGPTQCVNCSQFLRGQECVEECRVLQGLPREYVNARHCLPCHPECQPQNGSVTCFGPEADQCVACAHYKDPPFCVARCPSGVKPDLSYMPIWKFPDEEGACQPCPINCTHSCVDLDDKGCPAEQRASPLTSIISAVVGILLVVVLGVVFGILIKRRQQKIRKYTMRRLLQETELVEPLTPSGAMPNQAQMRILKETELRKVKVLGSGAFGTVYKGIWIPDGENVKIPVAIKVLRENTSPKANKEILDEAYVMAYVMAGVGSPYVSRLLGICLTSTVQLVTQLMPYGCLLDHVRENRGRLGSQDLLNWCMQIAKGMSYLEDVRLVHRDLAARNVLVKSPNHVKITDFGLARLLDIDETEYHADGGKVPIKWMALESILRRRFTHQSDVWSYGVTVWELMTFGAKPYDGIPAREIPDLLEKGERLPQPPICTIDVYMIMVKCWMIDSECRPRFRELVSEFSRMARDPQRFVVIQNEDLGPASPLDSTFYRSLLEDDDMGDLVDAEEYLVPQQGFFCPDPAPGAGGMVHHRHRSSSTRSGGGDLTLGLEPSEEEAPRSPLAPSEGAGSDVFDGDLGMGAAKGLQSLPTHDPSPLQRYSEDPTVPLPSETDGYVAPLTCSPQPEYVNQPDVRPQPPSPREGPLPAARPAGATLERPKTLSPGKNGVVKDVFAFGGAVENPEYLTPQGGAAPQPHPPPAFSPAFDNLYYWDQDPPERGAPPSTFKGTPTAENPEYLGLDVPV

SMILES | IC50 (HER2 INS YVMA) [µM] | GI50 [1] [µM] | GI50 [2] [µM] | IC50 (EGFR T790ML858R) [µM] | IC50 (EGFR wt) [µM] | IC50 (H1975) [µM] | IC50 (A431) [µM]
C=CC(=O)Nc1cc(-c2c(-c3ccc(N4CCN(C)CC4)cc3)[nH]c3ncc(C(=O)NCc4cccc(S(N)(=O)=O)c4)cc23)ccc1C [Example 126, 3-(3-acrylamido-4-methylphenyl)-2-(4-(4-methylpiperazin-1-yl)phenyl)-N-(3-sulfamoylbenzyl)-1H-pyrrolo[2,3-b]pyridine-5-carboxamide] | 0.1 to 0.5 | > 10 | > 10 | ≤ 0.1 | ≤ 0.1 | > 10 | > 10
C=CC(=O)Nc1cc(-c2c(-c3ccc(N4CCN(C)CC4)cc3)[nH]c3ncc(C(=O)NCc4nncn4C)cc23)ccc1C [Example 130, 3-(3-acrylamido-4-methylphenyl)-N-((4-methyl-4H-1,2,4-triazol-3-yl)methyl)-2-(4-(4-methylpiperazin-1-yl)phenyl)-1H-pyrrolo[2,3-b]pyridine-5-carboxamide] | 0.1 to 0.5 | > 10 | > 10 | 0.1 to 0.5 | ≤ 0.1 | > 10 | > 10
C=CC(=O)Nc1cc(-c2c(-c3ccc(N4CCN(C)CC4)cc3)[nH]c3ncc(C(=O)NCc4cccc(C(N)=O)c4)cc23)ccc1C [Example 133, 3-(3-acrylamido-4-methylphenyl)-N-(3-carbamoylbenzyl)-2-(4-(4-methylpiperazin-1-yl)phenyl)-1H-pyrrolo[2,3-b]pyridine-5-carboxamide] | 0.1 to 0.5 | > 10 | > 10 | 0.1 to 0.5 | ≤ 0.1 | > 10 | > 10
C=CC(=O)Nc1cc(-c2c(-c3ccc(C4CCN(C)CC4)cc3)[nH]c3nccc(Cl)c23)cc(C)c1C [Example 152, N-(5-(4-chloro-2-(4-(1-methylpiperidin-4-yl)phenyl)-1H-pyrrolo[2,3-b]pyridin-3-yl)-2,3-dimethylphenyl)acrylamide] | ≤ 0.1 | 0.1 to 0.5 | 0.1 to 0.5 | ≤ 0.1 | ≤ 0.1 | ≤ 0.1 | 0.5 to 1
C=CC(=O)Nc1cc(-c2c(-c3ccc(N4CCN(C)CC4)cc3)[nH]c3ncc(CC)cc23)ccc1C [Example 191, N-(5-(5-ethyl-2-(4-(4-methylpiperazin-1-yl)phenyl)-1H-pyrrolo[2,3-b]pyridin-3-yl)-2-methylphenyl)acrylamide 2,2,2-trifluoroacetate] | ≤ 0.1 | 0.1 to 0.5 | 0.1 to 0.5 | ≤ 0.1 | ≤ 0.1 | ≤ 0.1 | 1 to 100

The remaining lines, values ahead:

IC50 (HER2 INS YVMA) [µM] | GI50 [1] [µM] | GI50 [2] [µM] | IC50 (EGFR T790ML858R) [µM] | IC50 (EGFR wt) [µM] | IC50 (H1975) [µM] | IC50 (A431) [µM] | SMILES
≤ 0.1 | 0.5 to 1 | 0.1 to 0.5 | ≤ 0.1 | ≤ 0.1 | 1 to 100 | 1 to 100 | C=CC(=O)Nc1cc(-c2c(-c3cnc(N4CCN(C)CC4)s3)[nH]c3ncc(C(=O)OC(C)C)cc23)ccc1C [Example 169, isopropyl 3-(3-acrylamido-4-methylphenyl)-2-(2-(4-methylpiperazin-1-yl)thiazol-5-yl)-1H-pyrrolo[2,3-b]pyridine-5-carboxylate]
≤ 0.1 | 1 to 10 | 1 to 10 | ≤ 0.1 | ≤ 0.1 | 0.1 to 0.5 | 1 to 100 | C=CC(=O)N1CCCc2ccc(-c3c(-c4cccc(OCCN5CCCC5)c4)[nH]c4nccc(Cl)c34)cc21 [Example 94, 1-(7-(4-chloro-2-(3-(2-(pyrrolidin-1-yl)ethoxy)phenyl)-1H-pyrrolo[2,3-b]pyridin-3-yl)-3,4-dihydroquinolin-1(2H)-yl)prop-2-en-1-one]
≤ 0.1 | 0.1 to 0.5 | 0.1 to 0.5 | ≤ 0.1 | ≤ 0.1 | 0.1 to 0.5 | 1 to 100 | C=CC(=O)Nc1cc(-c2c(-c3ccc(N4CCN(C)CC4)cc3)[nH]c3ncc(C(=O)OCCOC)cc23)ccc1C [Example 140, 2-methoxyethyl 3-(3-acrylamido-4-methylphenyl)-2-(4-(4-methylpiperazin-1-yl)phenyl)-1H-pyrrolo[2,3-b]pyridine-5-carboxylate]

From patent publication US20220370440A1 (Lead Discovery Center GmbH, priority 2018, published 2022)
